# Measurements: patent publication US5622966A, “7-substituted quinolones and naphthyridones as antibacterial agents” (Warner-Lambert Company, priority 1995, dated 1997)
# Experiments:
# Experiment in all cases: In vitro antibacterial activity, microtitration dilution method (MIC)
# Type in all cases: cell-based
# Streptococcus pyog. = conditions: read-out: Minimal Inhibitory Concentration MIC
# Source text: (§1) The compounds of the invention display antibacterial activity when tested by the microtitration dilution method as described in Heifetz, et al, Antimicr. Agents & Chemoth. 6:124 (1974), which is incorporated herein by reference.
# (§2) By use of the above reference method, the following minimum inhibitory concentration value (MICs in μg/mL) shown in Table I were obtained for representative compounds of the invention.
# Kleb. pneu. = conditions: read-out: Minimal Inhibitory Concentration MIC
# Source text: as §1, §2
# S. aureus S = conditions: Staphylococcus aureus, read-out: Minimal Inhibitory Concentration MIC
# Source text: as §1, §2
# Prot. rettg. = conditions: read-out: Minimal Inhibitory Concentration MIC
# Source text: as §1, §2
# Pseu. aeru. = conditions: read-out: Minimal Inhibitory Concentration MIC
# Source text: as §1, §2
# E. coli Vogel = conditions: Escherichia coli, read-out: Minimal Inhibitory Concentration MIC
# Source text: as §1, §2
# Streptococcus pneum. = conditions: read-out: Minimal Inhibitory Concentration MIC
# Source text: as §1, §2
# S. aureus R = conditions: Staphylococcus aureus, read-out: Minimal Inhibitory Concentration MIC
# Source text: as §1, §2
# Streptococcus faec. = conditions: read-out: Minimal Inhibitory Concentration MIC
# Source text: as §1, §2
# Enter. cloac. = conditions: read-out: Minimal Inhibitory Concentration MIC
# Source text: as §1, §2
SMILES,MIC (Streptococcus pyog.) [µg/mL],MIC (Kleb. pneu.) [µg/mL],MIC (S. aureus S) [µg/mL],MIC (Prot. rettg.) [µg/mL],MIC (Pseu. aeru.) [µg/mL],MIC (E. coli Vogel) [µg/mL],MIC (Streptococcus pneum.) [µg/mL],MIC (S. aureus R) [µg/mL],MIC (Streptococcus faec.) [µg/mL],MIC (Enter. cloac.) [µg/mL]
"CNCc1cccc(C2CCN(c3c(F)c(N)c4c(=O)c(C(=O)O)cn(C5CC5)c4c3F)C2)c1 (stereo not shown) [Example 13, 5-Amino-1-cyclopropyl-6,8-difluoro-1,4-dihydro-7-[3-[3-[(methylamino)methyl]phenyl]-1-pyrrolidinyl]-4-oxo-3-quinolinecarboxvlic acid]",0.05,0.4,0.013,0.8,1.6,0.2,0.05,0.05,0.05,0.2
"NCc1cccnc1C1CCN(c2c(F)c(N)c3c(=O)c(C(=O)O)cn(C4CC4)c3c2F)C1 (stereo not shown) [Example 29, 5-Amino-7-[3-[3-(aminomethyl)-2-pyridinyl]-1-pyrrolidinyl]-1-cyclopropyl-6,8-difluoro-1,4-dihydro-4-oxo-3-quinolinecarboxylic acid]",0.025,0.1,0.013,0.2,1.6,0.05,0.025,0.025,0.025,0.05
"Nc1c(F)c(N2CCC(c3cccnc3)C2)c(F)c2c1c(=O)c(C(=O)O)cn2C1CC1 (stereo not shown) [Example 22, 5-Amino-1-cyclopropyl-6,8-difluoro-1,4-dihydro-4-oxo-7-[3-(3-pyridinyl)-1-pyrrolidinyl]-3-quinoline-carboxylic acid]",0.025,0.2,≤ 0.003,0.2,1.6,0.1,0.025,0.006,0.05,0.1
"O=C(O)c1cn(C2CC2)c2cc(N3CCC(c4ccccn4)C3)c(F)cc2c1=O (stereo not shown) [Example 17, 1-Cyclopropyl-6-fluoro-1,4-dihydro-4-oxo-7-[3-(2-pyridinyl)-1-pyrrolidinyl]-3-quinolinecarboxylic acid]",0.05,0.2,≤ 0.003,0.2,0.8,0.1,0.05,0.006,0.05,0.1
"Nc1c(F)c(N2CCC(c3ccncc3)C2)c(F)c2c1c(=O)c(C(=O)O)cn2C1CC1 (stereo not shown) [Example 25, 5-Amino-1-cyclopropyl-6,8-difluoro-1,4-dihydro-4-oxo-7-[3-(4-pyridinyl)-1-pyrrolidinyl]-3-quinoline-carboxylic acid]",0.05,0.4,≤ 0.003,0.4,3.1,0.2,0.05,0.006,0.05,0.2
"O=C(O)c1cn(C2CC2)c2cc(N3CCC(c4cccnc4)C3)c(F)cc2c1=O (stereo not shown) [Example 21, 1-Cyclopropyl-6-fluoro-1,4-dihydro-4-oxo-7-[3-(3-pyridinyl)-1-pyrrolidinyl]-3-quinolinecarboxylic acid]",0.025,0.2,≤ 0.003,0.2,0.8,0.1,0.025,0.006,0.025,0.1
"NCc1ccc(C2CCN(c3c(F)c(N)c4c(=O)c(C(=O)O)cn(C5CC5)c4c3F)C2)cc1 (stereo not shown) [Example 11, 5-Amino-7-[3-[4-(aminomethyl)phenyl]-1-pyrrolidinyl]-1-cyclopropyl-6,8-difluoro-1,4-dihydro-4-oxo-3-quinolinecarboxylic acid]",0.013,0.2,≤ 0.003,0.2,0.8,0.1,0.013,0.013,0.013,0.1
"NCc1ccccc1C1CCN(c2nc3c(cc2F)c(=O)c(C(=O)O)cn3C2CC2)C1 (stereo not shown) [Example 1, 7-[3-[2-(Aminomethyl)phenyl]-1-pyrrolidinyl]-1-cyclopropyl-6-fluoro-1,4-dihydro-4-oxo-1,8-naphthyridine-3-carboxylic acid]",0.025,0.2,0.013,0.4,1.6,0.1,0.025,0.05,0.05,0.1
"NCc1cccc(C2CCN(c3c(F)c(N)c4c(=O)c(C(=O)O)cn(C5CC5)c4c3F)C2)c1 (stereo not shown) [Example 8, 5-Amino-7-[3-[3-(aminomethyl)phenyl]-1-pyrrolidinyl]-1-cyclopropyl-6,8-difluoro-1,4-dihydro-4-oxo-3-quinolinecarboxylic acid]",0.013,0.1,≤ 0.003,0.2,0.8,0.05,0.006,0.013,0.013,0.05
"CNCc1ccc(C2CCN(c3c(F)c(N)c4c(=O)c(C(=O)O)cn(C5CC5)c4c3F)C2)cc1 (stereo not shown) [Example 15, 5-Amino-1-cyclopropyl-6,8-difluoro-1,4-dihydro-7-[3-[4-[(methylamino)methyl]phenyl]-1-pyrrolidinyl]-4-oxo-3-quinolinecarboxylic acid]",0.013,0.4,0.006,0.4,1.6,0.2,0.013,0.013,0.025,0.2
"NCc1cccc(C2CCN(c3nc4c(cc3F)c(=O)c(C(=O)O)cn4C3CC3)C2)c1 (stereo not shown) [Example 6, 7-[3-[3-(Aminomethyl)phenyl]-1-pyrrolidinyl]-1-cyclopropyl-6-fluoro-1,4-dihydro-4-oxo-1,8-naphthyridine-3-carboxylic acid]",0.006,0.05,0.006,0.1,0.8,0.05,0.006,0.013,0.025,0.05
"NCc1cccc(C2CCN(c3cc4c(cc3F)c(=O)c(C(=O)O)cn4C3CC3)C2)c1 (stereo not shown) [Example 7, 7-[3-[3-(Aminomethyl)phenyl]-1-pyrrolidinyl]-1-cyclopropyl-6-fluoro-1,4-dihydro-4-oxo-3-quinolinecarboxylic acid]",≤ 0.003,0.1,0.006,0.1,0.8,0.05,≤ 0.003,0.025,0.013,0.05
"CNCc1ccc(C2CCN(c3cc4c(cc3F)c(=O)c(C(=O)O)cn4C3CC3)C2)cc1 (stereo not shown) [Example 14, 1-Cyclopropyl-6-fluoro-1,4-dihydro-7-[3-[4-[(methylamino)methyl]phenyl]-1-pyrrolidinyl]-4-oxo-3-quinolinecarboxylic acid]",0.013,0.4,0.006,0.4,1.6,0.2,0.013,0.013,0.025,0.2
